Laboratory results reported in ChEMBL document CHEMBL3751713, “Synthesis and Biological Activity of Mono- and Di-N-acylated Aminoglycosides” (ACS Med Chem Lett, 2015).
Values after ≈ are worked out from the molar mass of the structure shown.

Columns and labels:
[1] = system: Staphylococcus aureus; assay: Antimicrobial activity against Gram-positive Staphylococcus aureus ATCC 29213 after 16 to 24 hrs by micro-dilution method; type: functional
[2] = system: Listeria monocytogenes; assay: Antimicrobial activity against Gram-positive Listeria monocytogenes ATCC 19115 after 16 to 24 hrs by micro-dilution method; type: functional
[3] = system: Pseudomonas aeruginosa; assay: Antimicrobial activity against Gram-negative Pseudomonas aeruginosa PAO1 after 16 to 24 hrs by micro-dilution method; type: functional
[4] = system: Haemophilus influenzae; assay: Antimicrobial activity against Gram-negative Haemophilus influenzae ATCC 51907 after 16 to 24 hrs by micro-dilution method; type: functional
[5] = molecular target: T1, Aminoglycoside 3'-phosphotransferase (Escherichia coli, UniProt P00551); assay: Drug metabolism assessed as Escherichia coli APH(3')-Ia-mediated compound modification at 100 uM; type: ADME
T1 sequence (P00551 whole entry): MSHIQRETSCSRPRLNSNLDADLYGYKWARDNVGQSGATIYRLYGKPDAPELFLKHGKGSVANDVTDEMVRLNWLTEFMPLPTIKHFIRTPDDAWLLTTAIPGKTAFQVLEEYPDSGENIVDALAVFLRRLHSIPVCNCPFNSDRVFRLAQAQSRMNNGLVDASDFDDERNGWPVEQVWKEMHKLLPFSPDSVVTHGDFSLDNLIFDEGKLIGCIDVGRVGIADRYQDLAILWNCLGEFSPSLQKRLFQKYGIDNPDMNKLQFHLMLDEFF

[6] = system: Staphylococcus aureus; assay: Antimicrobial activity against Gram-positive methicillin-resistant Staphylococcus aureus 2 after 16 to 24 hrs by micro-dilution method; type: functional
[7] = system: Staphylococcus aureus; assay: Antimicrobial activity against Gram-positive methicillin-resistant Staphylococcus aureus 1 after 16 to 24 hrs by micro-dilution method; type: functional
[8] = system: Bacillus anthracis; assay: Antimicrobial activity against Gram-positive Bacillus anthracis str. Sterne after 16 to 24 hrs by micro-dilution method; type: functional
[9] = system: Bacillus subtilis; assay: Antimicrobial activity against Gram-positive Bacillus subtilis 168 after 16 to 24 hrs by micro-dilution method; type: functional
[10] = system: Mycolicibacterium smegmatis; assay: Potency index, ratio MIC of tobramycin to MIC of compound for Mycobacterium smegmatis MC2-155; type: functional, str. MC2 155
[11] = system: Bacillus anthracis; assay: Potency index, ratio MIC of tobramycin to MIC of compound for Bacillus anthracis str. Sterne; type: functional
[12] = Drug metabolism assessed as Staphylococcus aureus Bifunctional AAC(6')-1e/APH(2'')-1a mediated compound modification at 100 uM; type: ADME
[13] = Drug metabolism assessed as Mycobacterium tuberculosis Eis mediated compound modification at 100 uM; type: ADME
[14] = Drug metabolism assessed as Escherichia coli AAC(3)-IV mediated compound modification at 100 uM; type: ADME
[15] = system: Bacillus cereus; assay: Antimicrobial activity against Gram-positive Bacillus cereus ATCC 17788 after 16 to 24 hrs by micro-dilution method; type: functional
[16] = system: Mycolicibacterium smegmatis; assay: Antimicrobial activity against Mycobacterium smegmatis MC2-155 after 16 to 24 hrs by micro-dilution method; type: functional; details: str. MC2 155
[17] = system: Bacillus anthracis; assay: Potency index, ratio MIC of kanamycin to MIC of compound for Bacillus anthracis str. Sterne; type: functional

Row | Compound | MIC [1] | MIC [2] | MIC [3] | MIC [4] | Drug metabolism [5] | MIC [6] | MIC [7] | MIC [8] | MIC [9] | Ratio [10] | Ratio [11] | Drug metabolism [12] | Drug metabolism [13] | Drug metabolism [14] | MIC [15] | MIC [16] | Ratio [17]
1 | NCC[C@H](O)C(=O)NC[C@H]1O[C@H](O[C@H]2[C@H](O)[C@@H](O[C@H]3O[C@H](CO)[C@@H](O)[C@H](N)[C@H]3O)[C@H](N)C[C@@H]2N)[C@H](N)C[C@@H]1O | 8 µg/mL (≈ 14.1 µM) | > 150 µg/mL | > 150 µg/mL | > 150 µg/mL | metabolite_notdetected | > 128 µg/mL | 16 µg/mL (≈ 28.1 µM) | 2 µg/mL (≈ 3.52 µM) | > 150 µg/mL | >=16 | 32 | metabolite_detected | metabolite_detected | metabolite_detected | > 150 µg/mL | 8 µg/mL (≈ 14.1 µM) | –
2 | NCC[C@H](O)C(=O)NC[C@H]1O[C@H](O[C@H]2[C@H](O)[C@@H](O[C@H]3O[C@H](CO)[C@@H](O)[C@H](N)[C@H]3O)[C@H](N)C[C@@H]2N)[C@H](O)[C@@H](O)[C@@H]1O | 32 µg/mL (≈ 54.6 µM) | > 150 µg/mL | 150 µg/mL (≈ 256 µM) | > 150 µg/mL | – | > 128 µg/mL | 32 µg/mL (≈ 54.6 µM) | 4 µg/mL (≈ 6.83 µM) | > 150 µg/mL | – | – | metabolite_detected | metabolite_detected | metabolite_detected | > 150 µg/mL | 2 µg/mL (≈ 3.42 µM) | 32
3 | N[C@H]1[C@H](O)[C@H](O[C@@H]2[C@@H](O)[C@H](O[C@@H]3O[C@@H](CNC(=O)OCc4ccccc4)[C@H](O)C[C@@H]3N)[C@@H](N)C[C@H]2N)O[C@@H](CO)[C@@H]1O (stereo in doubt) | 128 µg/mL (≈ 213 µM) | > 150 µg/mL | > 150 µg/mL | 75 µg/mL (≈ 125 µM) | metabolite_notdetected | > 128 µg/mL | > 128 µg/mL | 64 µg/mL (≈ 106 µM) | > 150 µg/mL | – | – | metabolite_detected | metabolite_detected | metabolite_detected | > 150 µg/mL | 16 µg/mL (≈ 26.6 µM) | –
4 | CN[C@@H]1[C@@H](O)[C@@H](O[C@@H]2[C@@H](O)[C@H](O[C@H]3OC(CN)=CC[C@H]3N)[C@@H](N)C[C@H]2N)OC[C@]1(C)O [SISOMICIN] | ≤ 0.25 µg/mL | 2.3 µg/mL (≈ 5.14 µM) | 1.2 µg/mL (≈ 2.68 µM) | 4.7 µg/mL (≈ 10.5 µM) | – | ≤ 0.25 µg/mL | ≤ 0.25 µg/mL | ≤ 0.25 µg/mL | 4.7 µg/mL (≈ 10.5 µM) | – | – | – | – | – | 9.4 µg/mL (≈ 21 µM) | ≤ 0.25 µg/mL | –
5 | NCC(=O)NC[C@H]1O[C@H](O[C@H]2[C@H](O)[C@@H](O[C@H]3O[C@H](CO)[C@@H](O)[C@H](N)[C@H]3O)[C@H](N)C[C@@H]2N)[C@H](N)C[C@@H]1O | 8 µg/mL (≈ 15.3 µM) | 18.8 µg/mL (≈ 35.8 µM) | 18.8 µg/mL (≈ 35.8 µM) | 75 µg/mL (≈ 143 µM) | metabolite_notdetected | 128 µg/mL (≈ 244 µM) | 4 µg/mL (≈ 7.63 µM) | 0.5 µg/mL (≈ 0.953 µM) | 75 µg/mL (≈ 143 µM) | >=32 | 128 | metabolite_detected | metabolite_detected | metabolite_detected | 18.8 µg/mL (≈ 35.8 µM) | 4 µg/mL (≈ 7.63 µM) | –
6 | CCN[C@@H]1C[C@H](N)[C@@H](O[C@H]2OC(CNC(=O)CN)=CC[C@H]2N)[C@H](O)[C@H]1O[C@H]1OC[C@](C)(O)[C@H](NC)[C@H]1O | 0.5 µg/mL (≈ 0.939 µM) | 18.8 µg/mL (≈ 35.3 µM) | 37.5 µg/mL (≈ 70.4 µM) | 37.5 µg/mL (≈ 70.4 µM) | metabolite_notdetected | 1 µg/mL (≈ 1.88 µM) | 32 µg/mL (≈ 60.1 µM) | 0.5 µg/mL (≈ 0.939 µM) | 37.5 µg/mL (≈ 70.4 µM) | – | – | metabolite_detected | metabolite_detected | metabolite_detected | 75 µg/mL (≈ 141 µM) | 1 µg/mL (≈ 1.88 µM) | –
7 | CN[C@@H]1[C@@H](O)[C@@H](O[C@@H]2[C@@H](O)[C@H](O[C@H]3OC(CNC(=O)CN)=CC[C@H]3N)[C@@H](N)C[C@H]2N)OC[C@]1(C)O | 1 µg/mL (≈ 1.98 µM) | 18.8 µg/mL (≈ 37.3 µM) | 18.8 µg/mL (≈ 37.3 µM) | 37.5 µg/mL (≈ 74.3 µM) | metabolite_notdetected | 2 µg/mL (≈ 3.96 µM) | 8 µg/mL (≈ 15.9 µM) | ≤ 0.25 µg/mL | 37.5 µg/mL (≈ 74.3 µM) | – | – | metabolite_detected | metabolite_detected | metabolite_detected | 75 µg/mL (≈ 149 µM) | 0.5 µg/mL (≈ 0.991 µM) | –
8 | NCC[C@@H](O)C(=O)NC[C@H]1O[C@H](O[C@@H]2[C@@H](O)[C@H](O[C@@H]3O[C@@H](CO)[C@H](O)[C@@H](N)[C@@H]3O)[C@@H](NC(=O)[C@@H](O)CCN)C[C@H]2N)[C@H](O)[C@@H](O)[C@@H]1O (stereo in doubt) | 128 µg/mL (≈ 186 µM) | 150 µg/mL (≈ 218 µM) | 75 µg/mL (≈ 109 µM) | > 150 µg/mL | metabolite_notdetected | > 128 µg/mL | > 128 µg/mL | > 128 µg/mL | > 150 µg/mL | – | – | metabolite_detected | metabolite_detected | metabolite_detected | 150 µg/mL (≈ 218 µM) | 8 µg/mL (≈ 11.6 µM) | –
9 | CCN[C@@H]1C[C@H](N)[C@@H](O[C@H]2OC(CN)=CC[C@H]2N)[C@H](O)[C@H]1O[C@H]1OC[C@](C)(O)[C@H](NC)[C@H]1O [NETILMICIN] | ≤ 0.25 µg/mL | 2.3 µg/mL (≈ 4.84 µM) | 2.3 µg/mL (≈ 4.84 µM) | 2.3 µg/mL (≈ 4.84 µM) | – | ≤ 0.25 µg/mL | ≤ 0.25 µg/mL | ≤ 0.25 µg/mL | 4.7 µg/mL (≈ 9.88 µM) | – | – | – | – | – | 4.7 µg/mL (≈ 9.88 µM) | ≤ 0.25 µg/mL | –
10 | NC[C@H]1O[C@H](O[C@H]2[C@H](O)[C@@H](O[C@H]3O[C@H](CO)[C@@H](O)[C@H](N)[C@H]3O)[C@H](N)C[C@@H]2N)[C@H](O)[C@@H](O)[C@@H]1O [KANAMYCIN] | 0.5 µg/mL (≈ 1.03 µM) | 4.7 µg/mL (≈ 9.7 µM) | 37.5 µg/mL (≈ 77.4 µM) | 9.4 µg/mL (≈ 19.4 µM) | – | > 128 µg/mL | > 128 µg/mL | > 128 µg/mL | > 150 µg/mL | – | – | – | – | – | 9.4 µg/mL (≈ 19.4 µM) | > 128 µg/mL | –
11 | NCC[C@H](O)C(=O)N[C@@H]1C[C@H](N)[C@@H](O[C@H]2O[C@H](CN)[C@@H](O)[C@H](O)[C@H]2O)[C@H](O)[C@H]1O[C@H]1O[C@H](CO)[C@@H](O)[C@H](N)[C@H]1O [AMIKACIN] | 1 µg/mL (≈ 1.71 µM) | 9.4 µg/mL (≈ 16.1 µM) | 2.3 µg/mL (≈ 3.93 µM) | 37.5 µg/mL (≈ 64 µM) | – | 32 µg/mL (≈ 54.6 µM) | 0.5 µg/mL (≈ 0.854 µM) | 16 µg/mL (≈ 27.3 µM) | 37.5 µg/mL (≈ 64 µM) | – | – | – | – | – | 9.4 µg/mL (≈ 16.1 µM) | ≤ 0.25 µg/mL | –
12 | NCC(=O)NCC[C@H](O)C(=O)N[C@H]1C[C@@H](N)[C@H](O[C@H]2O[C@H](CNC(=O)CN)[C@@H](O)[C@H](O)[C@H]2O)[C@@H](O)[C@@H]1O[C@H]1O[C@H](CO)[C@@H](O)[C@H](N)[C@H]1O (stereo in doubt) | > 128 µg/mL | > 150 µg/mL | > 150 µg/mL | > 150 µg/mL | metabolite_notdetected | > 128 µg/mL | > 128 µg/mL | > 128 µg/mL | > 150 µg/mL | – | – | metabolite_detected | metabolite_detected | metabolite_detected | > 150 µg/mL | 64 µg/mL (≈ 91.5 µM) | –
13 | NCC(=O)NC[C@H]1O[C@H](O[C@H]2[C@H](O)[C@@H](O[C@H]3O[C@H](CO)[C@@H](O)[C@H](N)[C@H]3O)[C@H](N)C[C@@H]2N)[C@H](O)[C@@H](O)[C@@H]1O | 16 µg/mL (≈ 29.5 µM) | 150 µg/mL (≈ 277 µM) | > 150 µg/mL | 150 µg/mL (≈ 277 µM) | – | > 128 µg/mL | > 128 µg/mL | 2 µg/mL (≈ 3.69 µM) | > 150 µg/mL | – | – | metabolite_detected | metabolite_detected | metabolite_detected | 150 µg/mL (≈ 277 µM) | > 128 µg/mL | 64
14 | NC[C@H]1O[C@H](O[C@H]2[C@H](O)[C@@H](O[C@H]3O[C@H](CO)[C@@H](O)[C@H](N)[C@H]3O)[C@H](N)C[C@@H]2N)[C@H](N)C[C@@H]1O [TOBRAMYCIN] | 0.5 µg/mL (≈ 1.07 µM) | 2.3 µg/mL (≈ 4.92 µM) | 0.6 µg/mL (≈ 1.28 µM) | 4.7 µg/mL (≈ 10.1 µM) | – | > 128 µg/mL | ≤ 0.25 µg/mL | > 128 µg/mL | 9.4 µg/mL (≈ 20.1 µM) | – | – | – | – | – | 9.4 µg/mL (≈ 20.1 µM) | ≥ 128 µg/mL | –
